Data from the supplement of paper PMC10307832.

Assays:
Assay in all cases: relative viability (nuclei count vs DMSO), 5 days (fraction); higher = more cells survive
Tozasertib + Palbociclib = compound: Cc1cc(Nc2cc(N3CCN(C)CC3)nc(Sc3ccc(NC(=O)C4CC4)cc3)n2)n[nH]1 [Tozasertib] + CC(=O)c1c(C)c2cnc(Nc3ccc(N4CCNCC4)cn3)nc2n(C2CCCC2)c1=O [Palbociclib] (partner 0.5 µM)
Procedure, shortened: (§1)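 Relative viability divides the nuclei count in treated wells by that in vehicle wells. Lung cancer cell lines were seeded in 1536-well plates, dosed by pin tool the next day, and fixed and stained after 5 days in one step with final 0.05% Triton X-100, 1% formaldehyde and 1 ug/ml Hoechst. Dosing was a single drug or a fixed anchor-drug dose plus five library-drug doses (not always all listed) in √10 steps, and values are medians of duplicate plates imaged at 4×.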

Tozasertib + Crizotinib = compound: Cc1cc(Nc2cc(N3CCN(C)CC3)nc(Sc3ccc(NC(=O)C4CC4)cc3)n2)n[nH]1 [Tozasertib] + C[C@@H](Oc1cc(-c2cnn(C3CCNCC3)c2)cnc1N)c1c(Cl)ccc(F)c1Cl [Crizotinib] (partner 1 µM)
Procedure, shortened: as §1

Tozasertib + Trametinib = compound: Cc1cc(Nc2cc(N3CCN(C)CC3)nc(Sc3ccc(NC(=O)C4CC4)cc3)n2)n[nH]1 [Tozasertib] + CC(=O)Nc1cccc(-n2c(=O)n(C3CC3)c(=O)c3c(Nc4ccc(I)cc4F)n(C)c(=O)c(C)c32)c1 [Trametinib] (partner 0.02 µM)
Procedure, shortened: as §1

Tozasertib + OSI-027 = compound: Cc1cc(Nc2cc(N3CCN(C)CC3)nc(Sc3ccc(NC(=O)C4CC4)cc3)n2)n[nH]1 [Tozasertib] + COc1cccc2cc(-c3nc([C@H]4CC[C@H](C(=O)O)CC4)n4ncnc(N)c34)[nH]c12 [OSI-027] (partner 0.5 µM)
Procedure, shortened: as §1

Cell Line | relative viability (Tozasertib + Palbociclib; first compound 0.004 µM) | relative viability (Tozasertib + Palbociclib; first compound 0.01265 µM) | relative viability (Tozasertib + Palbociclib; first compound 0.04 µM) | relative viability (Tozasertib + Palbociclib; first compound 0.1265 µM) | relative viability (Tozasertib + Crizotinib; first compound 0.01265 µM) | relative viability (Tozasertib + Crizotinib; first compound 0.04 µM) | relative viability (Tozasertib + Crizotinib; first compound 0.1265 µM) | relative viability (Tozasertib + Trametinib; first compound 0.004 µM) | relative viability (Tozasertib + Trametinib; first compound 0.01265 µM) | relative viability (Tozasertib + Trametinib; first compound 0.04 µM) | relative viability (Tozasertib + Trametinib; first compound 0.1265 µM) | relative viability (Tozasertib + OSI-027; first compound 0.004 µM) | relative viability (Tozasertib + OSI-027; first compound 0.01265 µM) | relative viability (Tozasertib + OSI-027; first compound 0.04 µM) | relative viability (Tozasertib + OSI-027; first compound 0.1265 µM) | relative viability (Tozasertib + Crizotinib; first compound 0.004 µM)
LCLC-97TM1 | 0.232 | 0.223 | 0.222 | 0.21 | 0.288 | 0.257 | 0.189 | 0.211 | 0.22 | 0.239 | 0.17 | 0.571 | 0.507 | 0.526 | 0.371 | 
LCLC-103H | 0.481 | 0.45 | 0.502 | 0.52 | 1.05 | 1.1 | 1.07 | 0.659 | 0.71 | 0.675 |  | 0.504 |  | 0.503 | 0.388 | 0.993
LK-2 | 0.736 | 0.782 | 0.887 | 0.378 |  | 0.239 | 0.244 | 0.859 | 0.646 | 0.739 | 0.353 | 0.184 | 0.199 | 0.198 | 0.182 | 0.19
LOU-NH91 | 0.526 | 0.536 | 0.512 | 0.529 | 0.703 | 0.754 | 0.722 | 0.692 | 0.811 | 0.838 | 0.793 |  | 0.675 | 0.763 | 0.728 | 0.619
LU99A | 0.423 | 0.386 | 0.369 | 0.324 | 0.514 | 0.466 | 0.27 | 0.545 | 0.504 | 0.494 | 0.373 | 0.307 | 0.278 | 0.269 | 0.269 | 0.627
LXF-289 | 0.63 | 0.6 | 0.561 | 0.583 | 0.758 | 0.717 | 0.161 | 0.69 | 0.625 | 0.685 | 0.571 | 0.695 | 0.731 | 0.779 | 0.441 | 
NCI-H23 | 0.58 | 0.518 | 0.498 | 0.313 | 0.459 | 0.421 | 0.27 | 0.356 | 0.435 | 0.426 | 0.223 | 0.614 | 0.629 | 0.666 | 0.453 | 0.45
NCI-H322M |  | 0.515 | 0.466 | 0.486 | 0.894 | 0.552 | 0.584 | 0.498 |  | 0.573 | 0.458 | 0.546 | 0.502 | 0.561 | 0.412 | 0.891
NCI-H358 | 0.14 | 0.135 | 0.168 | 0.0747 | 0.345 | 0.261 | 0.228 | 0.137 | 0.0985 | 0.132 | 0.0814 | 0.779 | 0.803 | 0.982 | 0.125 | 0.457
NCI-H441 | 0.222 | 0.186 | 0.213 | 0.203 | 0.591 | 0.828 | 0.628 | 0.575 | 0.393 | 0.428 | 0.318 | 0.57 | 0.647 | 0.568 | 0.6 | 0.706
NCI-H460 | 0.172 | 0.18 | 0.196 | 0.115 | 0.874 | 0.767 | 0.197 | 0.132 | 0.129 | 0.113 | 0.0704 | 0.855 | 0.645 | 0.668 | 0.519 | 0.871
NCI-H520 | 0.231 | 0.228 | 0.231 | 0.173 | 0.742 | 0.484 | 0.355 | 0.673 | 0.645 | 0.765 | 0.243 | 0.356 | 0.26 | 0.254 | 0.234 | 1.31
NCI-H596 |  |  |  |  | 0.949 | 1.01 | 0.79 | 0.992 | 0.877 | 0.826 | 0.622 | 0.785 | 0.628 | 0.797 | 0.771 | 1.09
NCI-H647 | 0.457 | 0.398 | 0.425 | 0.299 | 0.979 | 0.794 | 0.31 | 0.459 | 0.374 | 0.524 | 0.32 | 0.836 | 0.763 | 0.763 | 0.33 | 1.26
NCI-H650 | 0.362 | 0.288 | 0.317 | 0.313 | 0.73 | 0.574 | 0.397 | 1.06 | 0.918 | 0.894 | 0.823 | 0.549 | 0.512 | 0.535 | 0.452 | 0.8
NCI-H661 | 0.412 | 0.406 | 0.425 | 0.299 | 1.05 | 0.885 | 0.605 | 0.564 | 0.579 | 0.618 | 0.336 | 0.731 | 0.747 | 0.722 | 0.302 | 1.06
NCI-H727 | 0.554 | 0.573 | 0.629 | 0.563 | 0.783 | 0.787 | 0.402 | 0.358 | 0.395 | 0.38 | 0.37 | 0.75 | 0.536 | 0.683 | 0.539 | 0.683
NCI-H838 | 0.238 | 0.213 | 0.25 | 0.171 | 0.863 | 0.898 | 0.706 | 0.528 | 0.453 | 0.657 | 0.246 | 0.485 | 0.354 | 0.426 | 0.257 | 0.939
NCI-H1395 | 0.613 | 0.612 | 0.632 | 0.56 |  |  |  | 1.1 | 0.972 | 1.07 | 0.638 | 0.7 | 0.6 | 0.646 | 0.437 | 
NCI-H1563 |  |  |  |  | 0.843 | 0.934 | 0.84 |  |  |  |  |  | 0.763 | 0.713 | 0.701 | 0.843
NCI-H1793 | 0.307 | 0.312 | 0.367 | 0.295 |  |  |  | 0.442 | 0.385 | 0.415 | 0.328 | 0.229 | 0.214 | 0.358 | 0.228 | 
NCI-H2342 | 0.491 | 0.511 | 0.476 | 0.531 |  |  |  | 0.77 | 0.969 | 0.849 | 0.897 | 0.654 | 0.525 | 0.657 | 0.582 | 
